The values that follow come from patent US20090257999A1, “Method of preventing contrast-induced nephropathy” (Inotek Pharmaceuticals Corporation, priority 2007, published 2009).

Each structure is given as a SMILES string.

What all share (format): in vivo, rat
For test [1], the system named is diabetic rats. As to the kind of experiment: CIN model, Example 5: INO-1001 alone and with NAC in diabetic rats. The following applies: diabetic rats + Iomeprol, NAC 30 mg/kg i.v., INO-1001 10 mg/kg ip, or both, at −30 min. On the procedure:
Male Wistar rats (150-200 g; Harlan Nossanr) were housed in a controlled environment and provided with standard rodent chow and water. Diabetes was induced after 12 h of fasting. The animals received a single 60 mg/kg intravenous (i.v.) injection of streptozotocin (Sigma, St. Louis, Mo.) in 10 mM sodium citrate buffer, pH 4.5 (see figure). Control non-diabetic animals were fasted and received citrate buffer alone. After 24 hours, animals with blood glucose levels greater than 250 mg/dl were considered diabetic. The diabetic state was confirmed by evaluating the blood glucose levels. Ten days following the induction of diabetes rats were anesthetized with 90 mg/kg ketamine i.m. and 10 mg/kg xylazine i.m. and were treated with the contrast agent iomeprol (10 mL/kg injected via the lateral tail vein) or with 0.9% normal saline. The contrast agent used was the low osmolar non-ionic monomer iomeprol (Iomeron, 400 mgI mL-1; Bracco SpA, Milan, Italy) with an osmolality of 726±34 mosmol/kg H2O.
GROUP 1: Diabetic rats only+Placebo (i.v.). GROUP 2: Diabetic rats+Iomeprol+Placebo (i.v.) given at −30 min. GROUP 3: Diabetic rats+Iomeprol+NAC (30 mg/kg, i.v.) given at −30 min. GROUP 4: Diabetic rats+Iomeprol+INO-1001 (10 mg/kg, ip) given at −30 min. GROUP 5: Diabetic rats+Iomeprol+NAC (30 mg/kg, i.v.)+INO-1001 (10 mg/kg, ip) given at −30 min.
Blood samples were collected via the lateral tail vein into S1/3 tubes containing serum gel at 24 hours. The samples were centrifuged (6000 r.p.m. for 3 min) to separate plasma. All plasma samples were analyzed for biochemical parameters within 24 hours after collection. Plasma and urine concentrations of creatinine were measured as indicators of impaired glomerular function. Creatinine clearance was calculated using the following formula (=UV/P), where U refers to Creatinine concentration in urine, V to urine volume/min and P to serum creatinine. Plasma and urine concentrations of NGAL (neutrophil gelatinase associated lipocalin) levels and urine αGST (alpha glutathione S-transferase) and NGAL levels were evaluated.
Protein concentration in urine was determined by Bio-Rad DC Protein Assay (BioRad, Richmond Calif.). The Bio-Rad DC protein assay is a colorimetric assay for protein concentration. The reaction is similar to the well-documented Lowry assay (Lowry et al., Protein measurement with the Folin phenol reagent, J Biol Chem 193, 265-275 (1951). The Bio-Rad DC protein assay requires only a single 15-minute incubation, and absorbance is stable for a least 2 hours. The amount of protein is expressed in mg/ml.

Test [2] has as its system diabetic rats. As to the kind of experiment: CIN animal model, Example 1: fractional excretion of Na+ (FENa, tubular function). The following applies: at 96 hours. On the procedure: Male Wistar rats (150-200 g; Harlan Nossanr) were housed in a controlled environment and provided with standard rodent chow and water.
After 12 hours of fasting, the animals received a single 60 mg/kg intravenous (i.v.) injection of streptozotocin (Sigma, St. Louis, Mo.) in 10 mM sodium citrate buffer, pH 4.5 (see figure showing CIN model). Control non-diabetic animals were fasted and received citrate buffer alone. After 24 hours, animals with blood glucose levels greater than 250 mg/dl were considered diabetic. All experiments were performed 10 days following the induction of diabetes. The diabetic state was evaluated daily by determination of the blood glucose levels. […]
At the indicated time point blood samples were collected via the lateral tail vein into S1/3 tubes containing serum gel. […] All plasma samples were analyzed for biochemical parameters within 24 hours of collection. Plasma concentrations of urea and creatinine were measured as indicators of impaired glomerular function. Urine samples were collected at 96 hour after contrast agent administration and the volume of urine produced was recorded. Urine concentrations of Na^+ were measured and were used in conjunction with plasma Na^+ concentrations to calculate fractional excretion of Na^+ (FENa) using standard formulae, which was used as an indicator of tubular function. […]

For test [3], the system named is diabetic rats. The test can be described thus: CIN model, Example 2: NAC and Metalloporphyrin A in diabetic rats. The following applies: diabetic (STZ) rats + Iomeprol, NAC 3-100 mg/kg i.v., or NAC 10-100 mg/kg + Metalloporphyrin A 1 mg/kg i.v., at −30 min.
Description: Male Wistar rats (150-200 g; Harlan Nossanr) were housed in a controlled environment and provided with standard rodent chow and water. Diabetes was induced after 2 hours of fasting. The animals received a single 60 mg/kg intravenous (i.v.) injection of streptozotocin (Sigma, St. Louis, Mo.) in 10 mM sodium citrate buffer, pH 4.5 (see figure). Control non-diabetic animals were fasted and received citrate buffer alone. After 24 hours, animals with blood glucose levels greater than 250 mg/dl were considered diabetic. The diabetic state was confirmed by evaluating the blood glucose levels. Ten days following the induction of diabetes rats were anesthetized with 90 mg/kg ketamine i.m. and 10 mg/kg xylazine i.m. and were treated with the contrast agent iomeprol (10 mL/kg injected via the lateral tail vein) or with 0.9% normal saline. The contrast agent used was the low osmolar non-ionic monomer iomeprol (Iomeron, 400 mgI mL-1; Bracco SpA, Milan, Italy) with an osmolality of 726±34 mosmol/kg H2O.
Blood samples were collected via the lateral tail vein into S1/3 tubes containing serum gel at 0 and 24 hours. The samples were centrifuged (6000 r.p.m. for 3 min) to separate plasma. All plasma samples were analyzed for biochemical parameters within 24 hours after collection. Plasma and urine concentrations of creatinine were measured as indicators of impaired glomerular function. Creatinine clearance was calculated using the following formula (=UV/P), where U refers to Creatinine concentration in urine, V to urine volume/min and P to serum creatinine.
Test [4] has as its system malondialdehyde (MDA) in kidneys. As to the kind of experiment: Kidney malondialdehyde (MDA) levels, Example 1. The following applies: at 96 hours. On the procedure: Experimental model for assessing the effects of Metalloporphyrin A on CIN: Diabetic (n=8) for group #'s 1-9 or wild-type rats (n=10) for group #'s 10 and 11 were treated with drug 60 min prior to contrast agent administration. At the “0” time point, Iomeprol was administered with ensuing drug intervention dosing every 12 hours for Metalloporphyrin A from 24-84 hours or every 24 hours for NAC from 24-72 hours. At the 96 hour time point, kidneys were harvested for histopathology, MPO and MDA measurements. From 0-96 hours, plasma samples from all animals per group were screened for urea, creatinine, fractional excretion of Na^+ and NGAL.
Levels of malondialdehyde (MDA) in kidneys were determined as an indicator of lipid peroxidation following a protocol described previously (Davenport et. al. Clin. Transplant. 9 (3 Pt 1):171-51995).
Kidney tissue was weighed and homogenized in a 1.15% (wt/vol) KCl solution. A […] aliquot of homogenate was then removed and added to a reaction mixture containing […] 8.1% (wt/vol) lauryl sulfate, 1.5 mL 20% (vol/vol) acetic acid (pH 3.5), 1.5 mL 0.8% (wt/vol) thiobarbituric acid, and 700 mL distilled water. Samples were then boiled for one hour at 95° C. and centrifuged at 3000 g for 10 minutes. The absorbance of the supernatant was measured spectrophotometrically at […]. MDA levels were expressed as μM/100 mg wet tissue.

[5] abbreviates: diabetic rats + i.v. Iomeprol, Metalloporphyrin A 30-1000 μg/kg or NAC 10 mg/kg i.p.
[6] abbreviates: diabetic rats + i.v. saline (no contrast agent), Metalloporphyrin A 1000 μg/kg or NAC 10 mg/kg i.p.

`CC(=O)N[C@@H](CS)C(=O)O` [NAC, N-acetylcysteine]: the plasma creatinine result in test [1] (24 h) is on record as “significant reductions”. In test [1] (24 hours), the “plasma NGAL concentration” value is “significant reductions”, the “total protein concentration in the urine” value is on record as “significant reductions”, the “urine NGAL concentration” value is “significant reductions” and the “urine αGST” value is “significant reductions”. In addition, the “fractional excretion of sodium (FENa)” value in test [2] (setting [5]) is “significant reductions”. The “fractional excretion of sodium (FENa)” value in test [2] (setting [6]) is recorded as “significantly reduced the increase”. The plasma creatinine result in test [3] (24 h) is listed as “significant reductions”. Further, in test [3] (24 hours), the “total protein concentration in the urine” value is recorded as “significant reductions” and the “urine αGST concentration” value is reported as “significant reduction”. Besides, in test [4] (setting [5]), the “MDA levels in the kidney” value is listed as “significant reductions”. The “MDA levels in the kidney” value in test [4] (setting [6]) is recorded as “significantly reduced the increase”.
